# What was measured:
# [1] = system: Mycobacterium tuberculosis H37Rv; test: Microplate Alamar Blue Assay; type: cell-based; settings: for MIC: medium not specified; for anti-TB activity (in words): qualitative statement
# [2] = system: panel of nontuberculosis mycobacteria and other bacteria (Gram positive and negative) as well as select strains of yeast; test: MIC against panel of nontuberculosis mycobacteria, other bacteria and yeast; type: cell-based; settings: all strains of the panel; MIC's equal to negative control
# [3] = system: Mycobacterium vaccae 10670 and Mycobacterium fortuitum B; test: Agar diffusion assay; type: cell-based
# [4] = mice, po once a day, 100 mg/kg five days, 2 days rest, 200 mg/kg five days
# [5] = system: Mycobacteria tuberculosis H37Rv; settings: earlier work of the authors; cited from earlier work
# [6] = Metabolic stability in rat liver microsomes; type: in vitro ADME, Sprague-Dawley rat; settings: in vitro metabolism
# [7] = system: VERO cells; test: VERO cytotoxicity assay; settings: compared with non-methyl analog
# [8] = Mycobacterium tuberculosis, H37RV
compound,measurement,setting,value
"O=C(OCc1ccccc1)c1coc(-c2ccccc2)n1 [Compound 65, Benzyl 2-phenyloxazole-4-carboxylate]",MIC,[1]; [8],< 1 µM
same,MIC,[1],< 0.5 µM
same,MIC against panel (in words),[2],inactive
same,zones of inhibition,[3],some zones of inhibition
same,"tolerability (body weight, gross appearance and behavior)",[4],well tolerated
CCCCCCCCCCCCCCCC(=O)N(O)CCCC[C@H](NC(=O)[C@@H]1COC(c2ccccc2O)=N1)C(=O)OC[C@H](NC(=O)OC(C)(C)C)C(=O)N[C@H]1CCCCN(O)C1=O [Compound 2],effect on growth of Mycobacteria tuberculosis H37Rv,[5],potent inhibition of TB growth
CCCCCCCCCCCCCCCC(=O)N(O)CCCC[C@H](NC(=O)[C@@H]1COC(c2ccccc2O)=N1)C(=O)O[C@@H](C)CC(=O)N[C@H]1CCCCN(O)C1=O [Mycobactin S],effect on growth of Mycobacteria tuberculosis H37Rv,[5],inhibits the growth
"O=C(OCc1ccccc1)[C@@H]1COC(c2ccccc2OCc2ccccc2)=N1 [Compound 3, (S)-Benzyl 2-(2-(benzyloxy)phenyl)-4,5-dihydrooxazole-4-carboxylate]","tolerability (body weight, gross appearance and behavior)",[4],well tolerated
O=C(OCc1ccccc1)c1coc(-c2cccc(F)c2)n1 [Compound 89],MIC,[1]; [8],< 1 µM
O=C(OCc1ccccc1)c1coc(-c2cccc(Cl)c2)n1 [Compound 59],MIC,[1]; [8],< 1 µM
"O=C(OCc1ccccc1)[C@@H]1COC(c2ccccc2)=N1 [Compound 15, (S)-Benzyl 4,5-dihydro-2-phenyloxazole-4-carboxylate]",major metabolite,[6],the corresponding carboxylic acid
same,MIC against panel (in words),[2],inactive
same,zones of inhibition,[3],some zones of inhibition
same,"tolerability (body weight, gross appearance and behavior)",[4],well tolerated
COc1ccc(CC2=N[C@H](C(=O)OCc3ccccc3)CO2)cc1 [Compound 44],anti-TB activity (in words),[1],diminished activity
"O=C(OCc1ccccc1)c1coc(-c2ccccc2Cl)n1 [Compound 68, Benzyl 2-(2-chlorophenyl)oxazole-4-carboxylate]",MIC,[1]; [8],< 1 µM
same,MIC against panel (in words),[2],inactive
same,zones of inhibition,[3],some zones of inhibition
same,"tolerability (body weight, gross appearance and behavior)",[4],well tolerated
COC(=O)[C@@H]1COC(c2ccccc2OCc2ccccc2)=N1 [Compound 12],anti-TB activity (in words),[1],considerably less active
COC(=O)[C@@H]1COC(c2cccc(Cl)c2)=N1 [Compound 19],anti-TB activity (in words),[1],considerably less active
"O=C(OCc1ccccc1)[C@@H]1COC(c2ccc(F)c([N+](=O)[O-])c2)=N1 [Compound 29, (S)-Benzyl 2-(4-fluoro-3-nitrophenyl)-4,5-dihydrooxazole-4-carboxylate]",MIC against panel (in words),[2],inactive
same,zones of inhibition,[3],some zones of inhibition
same,"tolerability (body weight, gross appearance and behavior)",[4],well tolerated
"COc1ccc(-c2nc(C(=O)OCc3ccccc3)co2)cc1 [Compound 60, Benzyl 2-(4-methoxyphenyl)oxazole-4-carboxylate]",MIC against panel (in words),[2],inactive
same,zones of inhibition,[3],some zones of inhibition
same,"tolerability (body weight, gross appearance and behavior)",[4],well tolerated
Cc1oc(-c2ccc(F)cc2[N+](=O)[O-])nc1C(=O)OCc1ccccc1 [Compound 111],anti-TB activity (in words),[1],diminished anti-TB activity
O=C(OCc1ccccc1)c1coc(-c2cncc(-c3ccccc3)c2)n1 [Compound 78],MIC,[1]; [8],< 1 µM
O=C(OCc1ccccc1)c1coc(-c2ccc([N+](=O)[O-])cc2F)n1 [Compound 70],MIC,[1]; [8],< 1 µM
O=C(OCc1ccccc1)[C@@H]1COC(Cc2ccccc2)=N1 [Compound 43],anti-TB activity (in words),[1],diminished activity
Cc1oc(-c2ccccc2)nc1C(=O)OCc1ccccc1 [Compound 109],anti-TB activity (in words),[1],diminished anti-TB activity
same,toxicity in the VERO assay (in words),[7],greatly increased toxicity
"O=C(OCc1ccccc1)c1coc(-c2ccc(F)c([N+](=O)[O-])c2)n1 [Compound 66, Benzyl 2-(4-fluoro-3-nitrophenyl)oxazole-4-carboxylate]",MIC,[1]; [8],< 1 µM
same,MIC against panel (in words),[2],inactive
same,zones of inhibition,[3],some zones of inhibition
mycobactin T,effect on growth of Mycobacteria tuberculosis H37Rv,[5],promotes growth
"O=C(OCc1ccccc1)c1coc(-c2ccccc2OCc2ccccc2)n1 [Compound 63, Benzyl 2-(2-(benzyloxy)phenyl)oxazole-4-carboxylate]",MIC against panel (in words),[2],inactive
same,zones of inhibition,[3],some zones of inhibition
same,"tolerability (body weight, gross appearance and behavior)",[4],well tolerated
COC(=O)[C@@H]1COC(c2ccc([N+](=O)[O-])cc2)=N1 [Compound 27],anti-TB activity (in words),[1],considerably less active
O=C(O)[C@@H]1COC(c2ccccc2O)=N1 [Compound 4],anti-TB activity (in words),[1],lost all activity
COc1ccc(-c2nc(C(=O)OCc3ccccc3)c(C)o2)cc1 [Compound 110],anti-TB activity (in words),[1],diminished anti-TB activity

# Source: article PMC2843756 (European journal of medicinal chemistry, 2010)
